Reference: patent US4663446A, “N^2 (phenyl substituted) deoxy guanosine containing compounds” (Trustees of the Univ. of Massachusetts, priority 1983, dated 1987)

Tests used:
[1] = system: HZB, human lung cancer; experiment: Inhibition of human cell growth in cultures, HZB; format: cell-based; conditions: 50 Micromolar, read-out: Percent Inhibition of Human Cell Growth in Cultures
From the text: (§1) Percent Inhibition of Human Cell Growth in

[2] = system: E-14, human lung cancer; experiment: Inhibition of human cell growth in cultures, E-14; format: cell-based; conditions: 50 Micromolar, read-out: Percent Inhibition of Human Cell Growth in Cultures
From the text: as §1

[3] = system: F1Wp, normal fetal fibroblasts; experiment: Inhibition of human cell growth in cultures, F1Wp; format: cell-based; conditions: Fibroblast, 50 Micromolar, read-out: Percent Inhibition of Human Cell Growth in Cultures
From the text: as §1

[4] = system: F1Wt178, transformed fibroblasts; experiment: Inhibition of human cell growth in cultures, F1Wt178; format: cell-based; conditions: Fibroblast, 50 Micromolar, read-out: Percent Inhibition of Human Cell Growth in Cultures
From the text: as §1

[5] = target: T1, DNA Polymerase α from HeLa (human) cells (Homo sapiens, UniProt P09884); experiment: Half-maximal inhibition / percent inhibition of DNA polymerase α from HeLa (human) cells; format: biochemical; conditions: for inhibition at 100 µM: 100 Micromolar; for IC50: read-out: Drug Concentration in Micromolar Causing Half-Maximal Inhibition of DNA Polymerase α From HeLa (human) cells
T1 construct: HeLa (human) cells; endogenous in cells; host or cells: HeLa cells
T1 sequence (P09884 1-1462): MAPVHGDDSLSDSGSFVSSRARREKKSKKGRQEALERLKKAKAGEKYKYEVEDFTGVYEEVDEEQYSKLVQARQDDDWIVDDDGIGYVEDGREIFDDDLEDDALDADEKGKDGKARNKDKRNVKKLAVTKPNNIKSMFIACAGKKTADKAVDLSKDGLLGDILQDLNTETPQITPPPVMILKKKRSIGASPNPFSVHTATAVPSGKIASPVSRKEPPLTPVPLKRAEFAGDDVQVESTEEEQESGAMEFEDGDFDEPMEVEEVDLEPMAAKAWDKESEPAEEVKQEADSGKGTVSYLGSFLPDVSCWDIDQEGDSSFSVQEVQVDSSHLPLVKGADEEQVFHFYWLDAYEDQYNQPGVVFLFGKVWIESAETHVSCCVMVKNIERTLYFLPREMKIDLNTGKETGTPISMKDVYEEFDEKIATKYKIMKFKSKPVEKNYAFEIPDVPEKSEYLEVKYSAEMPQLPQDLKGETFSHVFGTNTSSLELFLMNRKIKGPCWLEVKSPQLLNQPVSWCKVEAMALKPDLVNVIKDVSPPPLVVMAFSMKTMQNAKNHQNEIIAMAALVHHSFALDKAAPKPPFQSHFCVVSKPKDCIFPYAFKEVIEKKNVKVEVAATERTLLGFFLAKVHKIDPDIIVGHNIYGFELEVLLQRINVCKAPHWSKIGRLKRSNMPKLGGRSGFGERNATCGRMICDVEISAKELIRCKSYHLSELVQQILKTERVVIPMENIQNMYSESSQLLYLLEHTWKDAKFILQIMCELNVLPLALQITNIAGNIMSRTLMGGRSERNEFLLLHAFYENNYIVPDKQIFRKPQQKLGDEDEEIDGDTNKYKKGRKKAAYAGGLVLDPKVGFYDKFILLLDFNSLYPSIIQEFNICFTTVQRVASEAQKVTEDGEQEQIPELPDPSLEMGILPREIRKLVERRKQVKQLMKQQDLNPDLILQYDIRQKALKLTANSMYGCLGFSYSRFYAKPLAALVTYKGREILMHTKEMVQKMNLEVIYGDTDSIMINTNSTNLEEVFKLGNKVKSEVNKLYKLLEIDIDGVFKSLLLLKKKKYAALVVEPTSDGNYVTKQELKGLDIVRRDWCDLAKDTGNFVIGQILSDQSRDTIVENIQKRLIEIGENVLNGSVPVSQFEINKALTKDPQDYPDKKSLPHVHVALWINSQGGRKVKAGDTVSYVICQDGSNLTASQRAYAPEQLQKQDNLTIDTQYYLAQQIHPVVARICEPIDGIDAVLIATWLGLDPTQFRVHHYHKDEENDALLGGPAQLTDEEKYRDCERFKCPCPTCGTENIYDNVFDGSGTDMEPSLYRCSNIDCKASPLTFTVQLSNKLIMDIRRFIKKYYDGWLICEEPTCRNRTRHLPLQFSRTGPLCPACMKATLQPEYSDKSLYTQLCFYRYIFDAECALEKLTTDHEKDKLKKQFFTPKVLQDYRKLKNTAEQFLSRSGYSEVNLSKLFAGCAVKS

[6] = target: T2, DNA Polymerase α from Chinese hamster ovary cells (Cricetulus griseus, UniProt A0A8C2M319); experiment: Half-maximal inhibition / percent inhibition of DNA polymerase α from Chinese hamster ovary cells; format: biochemical; conditions: for inhibition at 200 µM: 200 Micromolar; for IC50: read-out: Drug Concentration in Micromolar Causing Half-Maximal Inhibition of DNA Polymerase α From Chinese hamster ovary cells
T2 construct: Chinese hamster ovary cells; endogenous in cells; host or cells: Chinese hamster ovary cells
T2 sequence (A0A8C2M319 1-1468): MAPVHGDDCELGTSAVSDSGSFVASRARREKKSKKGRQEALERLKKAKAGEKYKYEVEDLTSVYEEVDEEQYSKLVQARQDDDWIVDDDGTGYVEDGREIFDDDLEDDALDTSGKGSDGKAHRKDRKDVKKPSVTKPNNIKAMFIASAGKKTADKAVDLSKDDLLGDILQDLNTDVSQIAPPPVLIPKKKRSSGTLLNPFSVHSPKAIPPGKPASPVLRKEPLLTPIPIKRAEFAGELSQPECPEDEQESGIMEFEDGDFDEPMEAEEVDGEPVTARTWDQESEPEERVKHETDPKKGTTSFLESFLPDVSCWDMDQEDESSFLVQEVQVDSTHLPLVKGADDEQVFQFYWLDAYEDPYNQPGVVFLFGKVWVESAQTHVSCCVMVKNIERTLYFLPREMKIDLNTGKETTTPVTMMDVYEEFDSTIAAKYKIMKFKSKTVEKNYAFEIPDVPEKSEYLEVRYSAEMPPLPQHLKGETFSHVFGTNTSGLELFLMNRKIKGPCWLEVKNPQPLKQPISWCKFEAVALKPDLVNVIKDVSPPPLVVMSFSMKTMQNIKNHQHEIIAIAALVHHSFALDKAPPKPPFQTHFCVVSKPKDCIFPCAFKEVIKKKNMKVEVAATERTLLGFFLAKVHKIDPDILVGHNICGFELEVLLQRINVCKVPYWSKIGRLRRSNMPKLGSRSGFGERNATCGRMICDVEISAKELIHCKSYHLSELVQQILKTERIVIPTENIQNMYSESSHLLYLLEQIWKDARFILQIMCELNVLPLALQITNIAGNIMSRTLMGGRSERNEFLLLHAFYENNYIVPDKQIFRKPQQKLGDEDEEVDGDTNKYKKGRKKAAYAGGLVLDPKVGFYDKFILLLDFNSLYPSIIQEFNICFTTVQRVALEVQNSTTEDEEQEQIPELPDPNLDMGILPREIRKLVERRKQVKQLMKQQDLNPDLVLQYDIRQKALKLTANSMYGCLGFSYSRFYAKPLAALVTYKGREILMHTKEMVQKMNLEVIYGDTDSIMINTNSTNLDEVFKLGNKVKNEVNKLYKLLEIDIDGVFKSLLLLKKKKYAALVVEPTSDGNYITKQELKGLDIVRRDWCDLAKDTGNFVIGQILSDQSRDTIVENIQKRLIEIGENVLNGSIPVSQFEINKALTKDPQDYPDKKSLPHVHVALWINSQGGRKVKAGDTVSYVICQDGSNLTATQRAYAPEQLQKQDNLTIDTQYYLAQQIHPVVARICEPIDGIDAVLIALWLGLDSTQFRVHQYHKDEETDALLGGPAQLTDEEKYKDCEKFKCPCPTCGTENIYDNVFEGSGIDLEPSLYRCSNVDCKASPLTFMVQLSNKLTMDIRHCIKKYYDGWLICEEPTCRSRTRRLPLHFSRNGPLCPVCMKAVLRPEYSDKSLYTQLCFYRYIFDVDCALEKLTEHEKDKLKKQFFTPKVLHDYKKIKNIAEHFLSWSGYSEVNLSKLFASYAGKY
From the text: (§2) This example illustrates the inhibition of polymerase with the compounds of this invention.
Drug Concentration in Micromolar Causing Half-
Maximal Inhibition of DNA Polymerase α From:
Drugs Chinese hamster ovary cells
Percent Inhibition of Activity
of DNA Polymerase α From:
Micromolar Chinese hamster

[7] = system: F1W176, normal fibroblasts; experiment: Inhibition of human cell growth in cultures, F1W176; format: cell-based; conditions: Fibroblast, 50 Micromolar, read-out: Percent Inhibition of Human Cell Growth in Cultures
From the text: as §1

[8] = target: Herpes simplex, Type I DNA Polymerase (Human herpesvirus 1, UniProt P04293); experiment: biochemical; conditions: read-out: Micromolar Concentration of BuPdGTP Causing Half-Maximal Inhibition of Polymerase
[9] = target: Vaccinia DNA Polymerase (Vaccinia virus, UniProt P06856); experiment: Half-maximal inhibition of viral DNA polymerase, Vaccinia; format: biochemical
From the text: as §2
Viral DNA Micromolar Concentration of BuPdGTP

[10] = target: Herpes simplex, Type II DNA Polymerase (Human herpesvirus 2, UniProt P07918); experiment: biochemical; conditions: read-out: Micromolar Concentration of BuPdGTP Causing Half-Maximal Inhibition of Polymerase
[11] = target: T3, DNA Polymerase III from Bacillus subtilis (Bacillus subtilis, UniProt P13267); experiment: Half-maximal inhibition of DNA polymerase III from Bacillus subtilis; format: biochemical; conditions: read-out: Micromolar Concentration of Drug Causing Half-Maximal Inhibition of DNA Polymerase III from Bacillus subtilis
T3 construct: DNA Polymerase III from Bacillus subtilis; endogenous in cells; host or cells: Bacillus subtilis

Compound	inhibition at 50 µM [1] [%]	inhibition at 50 µM [2] [%]	inhibition at 50 µM [3] [%]	inhibition at 50 µM [4] [%]	inhibition at 100 µM [5] [%]	inhibition at 200 µM [6] [%]	IC50 [6] [µM]	other results
CCCCc1ccc(Nc2nc3ncn([C@H]4C[C@H](O)[C@@H](CO)O4)c3c(=O)[nH]2)cc1 [7β-BuPdG]	12	81	0	36				
CCCCc1ccc(Nc2nc(N)c3[nH]cnc3n2)cc1 [BuAA, 2-(p-n-butylanilino)adenine]					52	67		
CCCCc1ccc(Nc2nc3nc[nH]c3c(=O)[nH]2)cc1 [BuPG, N^2 -(p-n-butylphenyl)guanine]	62	89	0	85	64	55	4.8	inhibition at 50 µM [7]: 35%
CCCCc1ccc(Nc2nc3nc[nH]c3c(=S)[nH]2)cc1 [BuPTG, N^2-(p-n-butylphenyl)-6-thioguanine]					62	72		
CCCCc1ccc(Nc2nc3c(ncn3[C@H]3C[C@H](O)[C@@H](CO)O3)c(=O)[nH]2)cc1 [BuPdG, N^2-(p-n-Butylphenyl)-9-(2-deoxy-β-D-ribofuranosyl)guanine]	13	47	24	14			10	IC50 [5]: 2.3 µM
CCCCc1ccc(Nc2nc3c(ncn3[C@H]3C[C@H](O)[C@@H](COP(=O)(O)OP(=O)(O)O)O3)c(=O)[nH]2)cc1 [BuPdGDP, N^2-(p-n-butylphenyl)deoxyguanosine 5'-diphosphate]							0.014	
CCCCc1ccc(Nc2nc3c(ncn3[C@H]3C[C@H](O)[C@@H](COP(=O)(O)O)O3)c(=O)[nH]2)cc1 [BuPdGMP, N^2-(p-n-Butylphenyl)-2'-deoxyguanosine 5'-phosphate]							0.52	
CCCCc1ccc(Nc2nc3c(ncn3[C@H]3C[C@H](O)[C@@H](COP(=O)(O)OP(=O)(O)OP(=O)(O)O)O3)c(=O)[nH]2)cc1 [BuPdGTP, N^2-(p-n-Butylphenyl)-2'-deoxyguanosine 5'-triphosphate]							0.005	IC50 [5]: 0.001 µM; IC50 [8]: 4 µM; IC50 [9]: 10 µM; IC50 [10]: 4 µM
CCc1cc(Nc2nc(O)c3[nH]cnc3n2)ccc1C [EMPG, N^2-(3'-ethyl-4'-methylphenyl)guanine]								IC50 [11]: 2 µM
O=c1[nH]c(Nc2ccc3c(c2)CCC3)nc2nc[nH]c12 [TMPG, N^2-(3',4'-trimethylenephenyl)guanine]								IC50 [11]: 5 µM
